# Test results: patent US20150307508A1, “Application of an alkaloid derived from a Chinese herbal for treatment of cancer by inhibiting cholesterol synthesis and fatty acid oxidation” (Macau University of Science and Technology, priority 2014, published 2015)
# Where “and” joins values, the source holds several entries; their conditions need not be identical. Equal entries are not always repeated.
# What was measured:
# H1819 [1] = experiment: MTT cytotoxicity assay, H1819; type: cell-based; conditions: Homo sapiens, NCI-H1819, H1819, 72 hrs, read-out: IC50 value after 72 hrs of treatment
# Source text: (§1) This example described the BBR-induced cytotoxicity effect in six NSCLC cell lines utilizing MTT cytotoxicity assay. A549 is wild type EGFR and BEAS-2B is normal lung epithelial cells.
# A549 (EGFR^Wild type) = experiment: MTT cytotoxicity assay, A549; type: cell-based; conditions: Homo sapiens, A549, 72 hrs, read-out: IC50 value after 72 hrs of treatment
# Source text: as §1
# H1650 cells [2] = experiment: Cell cycle analysis of H1650; type: cell-based, human; conditions: 72 hrs
# Source text: (§2) The anticancer effect of berberine against two most BBR sensitive cell lines are further studied in Example 8, namely H1975 (EGFR^L858R+T790M) and H1650 (EGFR^Exon19 deletion).
# HCC827 = experiment: MTT cytotoxicity assay, HCC827; type: cell-based; conditions: Homo sapiens, HCC827, 72 hrs, read-out: IC50 value after 72 hrs of treatment
# Source text: as §1
# CCNB1 = experiment: Western blot analysis of CCNB1 protein level in H1975 cells; type: cell-based, human; conditions: 72 hrs
# H1975 (EGFR^L858R+T790M) = experiment: MTT cytotoxicity assay, H1975; type: cell-based; conditions: Homo sapiens, NCI-H1975, H1975, 72 hrs, read-out: IC50 value after 72 hrs of treatment
# Source text: as §1
# CCND1 = experiment: Western blot analysis of CCND1 protein level in H1975 cells; type: cell-based, human; conditions: 72 hrs
# CPT1C = experiment: Real-time PCR analysis of CPT1C RNA expression; type: cell-based, human; conditions: 24 hrs
# Description: (§3) The RNA expression levels of CPT1C and SREBP1 in both H1975 and H1650 cell lines after being treated with 10 μM BBR for 24 hrs were analyzed by Real-time PCR analysis and Western blot analysis, as shown in FIGS. 2A-2D.
# H1975 cells [3] = experiment: Cell cycle analysis of H1975; type: cell-based, human; conditions: 72 hrs
# Source text: as §2
# [4] = system: H1650 (EGFR^Exon19 deletion); experiment: MTT cytotoxicity assay, H1650; type: cell-based; conditions: Homo sapiens, NCI-H1650, H1650, 72 hrs, read-out: IC50 value after 72 hrs of treatment
# Source text: as §1
# SREBP1 = experiment: Real-time PCR analysis of SREBP1 RNA expression; type: cell-based, human; conditions: 24 hrs
# Description: as §3
# H1650 cells [5] = experiment: Thin-layer chromatography of total cellular lipid, H1650; type: cell-based, human; conditions: H1650, 5 μM, 72 hours
# Description: (§4) Cells were scraped from culture dish and resuspended in 2 ml PBS containing 1× protease inhibitor and 1 mM PMSF. Total cellular lipid was extracted by adding 4 ml chloroform/methanol (2:1). The mixture was vortexed for 1 min and centrifuged at 1500 g×5 min. The organic phase was collected and another 2.5 ml choloroform was added to the residual aqueous phase; the mixture was vortexted and centrifuged at 1500 g×5 min again. The organic phase was collected together with the previous extraction. Thin layer chromatography (TLC) was performed by spotting of the cellular total lipid extract to a 5×10 cm silica gel aluminum sheet and developed with hexane/diethyl ether/acetic acid (80:20:2). Lipids were visualized with iodine vapor and imaged using a desktop scanner
# (§5) The overall lipid levels in H1975 and H1650 treated by Berberine were studied in this example. H1975 and H1650 cells were treated with 5 μM BBR for 72 hours and then total cellular lipid was extracted.
# H1975 cells [6] = experiment: Thin-layer chromatography of total cellular lipid, H1975; type: cell-based, human; conditions: H1975, 5 μM, 72 hours
# Description: as §4, §5
# [7] = system: BEAS-2B (Normal lung epithelial cell); experiment: MTT cytotoxicity assay, BEAS-2B; type: cell-based; conditions: Homo sapiens, 72 hrs, read-out: IC50 value after 72 hrs of treatment
# Source text: as §1
# H1819 [8] = conditions: cited from earlier work
# H1650 = conditions: cited from earlier work
# [9] = system: BEAS-2B (Normal lung epithelial cell); conditions: cited from earlier work
# H1975 = conditions: cited from earlier work
structure (smiles),measurement,setting,value
"COc1ccc2cc3[n+](cc2c1OC)CCc1cc2c(cc1-3)OCO2 [BBR, berberine]",IC50,H1819 [1],6.51 ± 2.09 µM
same,IC50,A549 (EGFR^Wild type),11.2 ± 3.98 µM
same,decrease of percentage of G0/G1 phase vs control,"H1650 cells [2]; H1650, 5 μM",21.1%
same,decrease of percentage of G0/G1 phase vs control,"H1650 cells [2]; H1650, 10 μM",18.3%
same,IC50,HCC827,8.9 ± 4.4 µM
same,protein level of CCNB1 (Western blot),CCNB1,down-regulated
same,IC50,H1975 (EGFR^L858R+T790M),2.92 ± 0.49 µM
same,protein level of CCND1 (Western blot),CCND1,down-regulated
same,increase of RNA expression level of CPT1C vs vehicle control,"CPT1C; H1650, 10 μM",5.92 times
same,increase of RNA expression level of CPT1C vs vehicle control,"CPT1C; H1975, 10 μM",2.005 times
same,decrease of percentage of G0/G1 phase vs control,"H1975 cells [3]; H1975, 5 μM",11.5%
same,increase of G2 phase vs control,"H1975 cells [3]; H1975, 5 μM",11%
same,decrease of percentage of G0/G1 phase vs control,"H1975 cells [3]; H1975, 10 μM",14%
same,increase of G2 phase vs control,"H1975 cells [3]; H1975, 10 μM",15.73% and 15.7%
same,IC50,[4],6 ± 2.78 µM
same,decrease of RNA expression level of SREBP1 vs vehicle control,"SREBP1; H1650, 10 μM",2.64 times
same,decrease of RNA expression level of SREBP1 vs vehicle control,"SREBP1; H1975, 10 μM",9.23 times
same,overall lipid levels (TLC),H1650 cells [5],lower the overall lipid levels
same,overall lipid levels (TLC),H1975 cells [6],lower the overall lipid levels
same,IC50,[7],24.7 ± 12.4 µM
COc1cc2ncnc(Nc3ccc(F)c(Cl)c3)c2cc1OCCCN1CCOCC1 [Gefitinib],Gefitinib Sensitivity,H1819 [8],Moderately sensitive
same,Gefitinib Sensitivity,H1650,Resistant
same,Gefitinib Sensitivity,[9],Resistant
same,Gefitinib Sensitivity,H1975,Resistant
